We go through three compounds from patent US20030186845A1, “Compositions for preventing urinary calculus” (priority 2000, published 2003).

Test [1] deals with male rats. Put plainly: Calculus prevention effect by DTPA (repeated intravenous administration, 2 weeks, two lots). It is filed as in vivo. The note with it: for Urinary occult blood: occurrences/inspections. The method, then: Toxicity studies by repeated intravenous administration were conducted on male rats for 2 weeks using, as a specimen, R-CHI3-DTPA-Gd to which DTPA was added. In this test, two lots (hereinafter called lot #1 and lot #2) of R-CHI3-DTPA-Gd were provided, and the following administered groups were set up. […] As control groups, were set up a group that was administered with a physiological saline and a group that was free from a chelating agent (i.e., administered with […] of lot (1) only). Except the physiological saline-administered group, the dose as R-CHI3-DTPA-Gd was 0.33 mmol/kg.

The test system of test [2] is male rats. Nature of the test: Calculus prevention effect by chelating agents (repeated intravenous administration, 2 weeks). The test is classed as in vivo. As to conditions: for Calculi / Hyperplasia of vesical transitional epithelium / Urinary occult blood: mixed with R-CHI3-DTPA-Gd 0.33 mmol/kg i.v.; for Calculi / Hyperplasia of vesical transitional epithelium / Effect of inhibiting production of calculi: male rats; for Urinary occult blood: occurrences/total daily inspections for 14 days; for Effect of inhibiting production of calculi: specimens of R-CHI3-DTPA-Gd mixed with chelating agent, summary in words. How it is done: To R-CHI3-DTPA-Gd, was added diethylenetriaminepentaacetic acid (DTPA), its calcium complex, or calcium complex of ethylenediaminetetraacetic acid (EDTA). Using them as specimens, toxicity studies by repeated intravenous administration were conducted on male rats for 2 weeks. A group, which is called DTPA-10 group, was administered with a specimen of R-CHI3-DTPA-Gd mixed with DTPA in an amount equivalent to 10 mmol per 500 mmol of the DTPA-Gd portion of the R-CHI3-DTPA-Gd; a group, which is called DTPA-Ca-10 group, was administered with a specimen mixed with calcium complex of DTPA in an amount equivalent to 10 mmol; a group, which is called EDTA-Ca-1 group, was administered with a specimen mixed with calcium complex of EDTA in an amount equivalent 1 mmol; and a group, which is called EDTA-Ca-10 group, was administered with a specimen mixed with calcium complex of EDTA in an amount equivalent to 10 mmol. DTPA and others were mixed with R-CHI3-DTPA-Gd immediately before administration. As control groups, were set up a group that was administered with a physiological saline and a group that was free from a chelating agent (i.e., administered with R-CHI3-DTPA-Gd only). Except the physiological saline-administered group, the dose as R-CHI3-DTPA-Gd was 0.33 mmol/kg.
(The chelating agent-free group is estimated to include individuals that discharged calculi from their urinary bladders, judging from the hyperplasia of vesical transitional epithelium and the frequency of urinary occult blood.)

Setting [3] is: DTPA 1 mmol per 500 mmol DTPA-Gd portion, R-CHI3-DTPA-Gd lot #1, 0.33 mmol/kg i.v.
[4] abbreviates: DTPA 1 mmol per 500 mmol DTPA-Gd portion, R-CHI3-DTPA-Gd lot #2, 0.33 mmol/kg i.v.
Where [5] appears, read: DTPA 1.3 mmol per 500 mmol DTPA-Gd portion, R-CHI3-DTPA-Gd lot #2, 0.33 mmol/kg i.v.
Where [6] appears, read: DTPA 3 mmol per 500 mmol DTPA-Gd portion, R-CHI3-DTPA-Gd lot #1, 0.33 mmol/kg i.v.
[7] abbreviates: DTPA 10 mmol per 500 mmol DTPA-Gd portion, R-CHI3-DTPA-Gd lot #2, 0.33 mmol/kg i.v.
The mark [8] stands for this setting: chelating agent 10 mmol per 500 mmol DTPA-Gd portion.
Setting [9] is: chelating agent 1 mmol per 500 mmol DTPA-Gd portion.

In the case of `O=C(O)CN(CCN(CC(=O)O)CC(=O)O)CCN(CC(=O)O)CC(=O)O` [DTPA, diethylenetriaminepentaacetic acid], the Calculi with male rats [1] (setting [3]) is listed as 5/10; in the test with male rats [1] (setting [4]), 5/10; in the test with male rats [1] (setting [5]), 5/10; in the test on male rats [1] (setting [6]) it was 5/10; with male rats [1] (setting [7]) it was 3/10; in the test on male rats [2] (setting [8]) it was 0/10. For the same compound, the “Hyperplasia of vesical transitional epithelium” value (from here on “Hyperplasia”) with male rats [1] (setting [3]) is 7/10; in the test on male rats [1] (setting [4]), 6/10; with male rats [1] (setting [5]) it was 7/10; in the test with male rats [1] (setting [6]), 5/10; in the test on male rats [1] (setting [7]), 4/10; with male rats [2] (setting [8]), 0/10. The Urinary occult blood with male rats [1] (setting [3]) is listed as 24/140; in the test with male rats [1] (setting [4]), 27/140; in the test on male rats [1] (setting [5]), 26/140; with male rats [1] (setting [6]), 17/140; in the test on male rats [1] (setting [7]), 19/140; with male rats [2] (setting [8]) it was 8/140. In addition, the “Effect of inhibiting production of calculi” value with male rats [2] is listed as “significant effect”.

`O=C([O-])CN(CCN(CCN(CC(=O)[O-])CC(=O)O)CC(=O)O)CC(=O)O.[Ca+2]` [DTPA-Ca]: in the test with male rats [2] (setting [8]), the Calculi is reported as 0/10, the “Hyperplasia” value is reported as 0/10 and the Urinary occult blood is reported as 3/140. Moreover, the “Effect of inhibiting production of calculi” value in the test on male rats [2] is “significant effect”.

Consider `O=C([O-])CN(CCN(CC(=O)[O-])CC(=O)O)CC(=O)O.[Ca+2]` [EDTA-Ca], for which, in the test on male rats [2] (setting [9]), the Calculi is 4/10, the “Hyperplasia” value is recorded as 2/10 and the Urinary occult blood is listed as 17/140. Besides, in the test on male rats [2] (setting [8]), the Calculi is listed as 1/10, the “Hyperplasia” value is listed as 1/10 and the Urinary occult blood was 6/140. Further, the “Effect of inhibiting production of calculi” value in the test with male rats [2] is reported as “week effect”.
